Source: ChEMBL document CHEMBL1150656, “Constituents of the stigmas of Crocus sativus and their tyrosinase inhibitory activity” (J Nat Prod, 2002)

Each compound was assayed against T1, Tyrosinase (Agaricus bisporus, UniProt O42713).
T1 sequence (O42713 whole entry): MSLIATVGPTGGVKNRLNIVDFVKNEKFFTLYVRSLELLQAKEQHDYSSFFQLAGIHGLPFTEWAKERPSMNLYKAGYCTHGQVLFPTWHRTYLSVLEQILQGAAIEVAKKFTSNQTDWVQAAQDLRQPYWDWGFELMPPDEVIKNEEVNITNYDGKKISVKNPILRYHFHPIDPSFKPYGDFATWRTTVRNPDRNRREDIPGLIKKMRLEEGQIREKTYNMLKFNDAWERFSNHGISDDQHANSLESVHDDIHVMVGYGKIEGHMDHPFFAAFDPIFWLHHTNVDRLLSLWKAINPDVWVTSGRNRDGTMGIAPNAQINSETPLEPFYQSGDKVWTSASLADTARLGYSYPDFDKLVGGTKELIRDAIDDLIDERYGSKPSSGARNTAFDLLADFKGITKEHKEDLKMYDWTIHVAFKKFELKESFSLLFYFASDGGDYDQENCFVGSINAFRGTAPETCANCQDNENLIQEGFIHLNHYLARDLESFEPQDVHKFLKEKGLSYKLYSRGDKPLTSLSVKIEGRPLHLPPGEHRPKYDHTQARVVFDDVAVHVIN
Description: Inhibition of mushroom tyrosinase

IC50 [µM]	SMILES
960	CC(/C=C/C=C(\C)C(=O)O)=C\C=C\C=C(C)\C=C\C=C(/C)C(=O)O[C@@H]1O[C@H](CO[C@@H]2O[C@H](CO)[C@@H](O)[C@H](O)[C@H]2O)[C@@H](O)[C@H](O)[C@H]1O [CROCIN 3]
140	CC(/C=C/C=C(\C)C(=O)O[C@@H]1O[C@H](CO[C@@H]2O[C@H](CO)[C@@H](O)[C@H](O)[C@H]2O)[C@@H](O)[C@H](O)[C@H]1O)=C\C=C\C=C(C)\C=C\C=C(/C)C(=O)O[C@@H]1O[C@H](CO[C@@H]2O[C@H](CO)[C@@H](O)[C@H](O)[C@H]2O)[C@@H](O)[C@H](O)[C@H]1O [CROCIN]
870	CC1=C([C@@H](O)CC(=O)O)C(C)(C)C[C@@H](O)C1 [CROCUSATIN H]
4500	Oc1ccc(O)cc1 [HYDROQUINONE]
